Laboratory results: US20100047227A1, “NOVEL ANTICANCER CATHEPSIN FORMULATIONS AND ANTICANCER AGENT FOR USE IN COMBINED ANTICANCER THERAPY” (priority 2006, published 2010)
Square brackets hold non-standard residues; d marks the D form. Peptide text beside a SMILES is read from it. * marks the point of attachment. Sta = CC(C)C[C@H](N)[C@@H](O)CC(=O)O; Isovaleryl = CC(C)CC(=O)*; Cbz = O=C(OCc1ccccc1)*; CH2F = FC*

Tests used:
Assay type in all cases: cell-based
[1] = test system: human prostate cancer ALVA-41 cells; assay: survival rate of cells (Cell Counting Kit-8), ALVA-41 cells; conditions: for number of living cells: ALVA-41 cells, 20 hours
Experimental: The survival rate of cells was measured by Cell Counting Kit-8 in accordance with a manufacturer's manual. The method will be described briefly as follows. A 96-well (each 100 μl) plate was inoculated with cells (1×10^4 cells) and incubated for 24 hours, and the cells were incubated in a non-serum culture medium Opti-MEM together with a given concentration of each cathepsin purified from rat stomach (References #27 and #60-#62). Thereafter, the kit reagent (10 μl) was added to each well and the wells were incubated for another 1 hour. After incubation, each well was measured at the absorbance of 450 nm with a microplate reader.
(§1) In the figure, an indicating bar scale represents 50 μm. […] In the figure, an indicating bar scale represents 50 μm.
In this experiment, the survival rate of the ALVA-41 cells was measured by incubating the cells with cathepsin E of a given concentration in the presence or absence of pepstatin A (100 μM) at 37° C. and pH 7.4 for 20 hours. The data is represented as a percentage with respect to the value for non-treated cell group. The data were obtained as an average value±SD from the data obtained by four separate experiments. […] In this experiment, the HEK293 cells were incubated together with a given concentration of natural cathepsin E, wild-type recombinant and the active site mutant (D98A/D283A) at 37° C. and pH 7.4 for 20 hours. The survival rate of the cells was measured and represented as a percentage with respect to the value of the non-treated cell group. The data represents an average value±SD from the data obtained by four separate experiments. In the value, *p<0.001 is a corresponding value for the cells treated with the mutant. […] In this experiment, ALVA-41 cells were treated solely with cathepsin E of a given concentration in the same manner as for FIG. 2A and the culture supernatant was recovered, followed by centrifuging to remove the precipitate and transferring a portion ([…]) of the supernatant to a freshly prepared culture of ALVA-41 cells. Thereafter, the cells were incubated at 37° C. and pH 7.4 for 20 hours in the absence (black round mark) or presence (white round mark) of pepstatin A (100 μM) and measured for the survival rate of the cells. The cell survival rate is represented as a percentage with respect to the value of the cells treated with the culture supernatant of the ALVA-41 cells treated with physiological saline. The data is represented as an average value±SD from the data obtained by four separate experiments. […] The cathepsin E activity (on the upper panel) and the cytotoxic activity (on the lower panel) of each column fraction were determined using freshly prepared ALVA-41 cells and a cathepsin E-specific substrate. The cell survival rate of each fraction treated with the protein at a given final concentration is represented as a percentage with respect to the value of the cells treated with physiological saline and as an average value±SD from the data obtained by four separate experiments. The cathepsin E activity is represented as a percentage of the total activity in the culture supernatant, and the data is represented as an average±SD from the data obtained by three separate experiments.

[2] = test system: human leukemia U937 cells; assay: survival of human leukemia U937 cells; conditions: sole administration, 10 μg/ml
[3] = test system: human prostate cancer ALVA-41 cells; assay: measurement for apoptosis (morphology, annexin V staining, TUNEL assay), ALVA-41 cells; conditions: for effect of caspase inhibitor on cell death of cancer cells caused by cathepsin E: ALVA-41 cells treated with cathepsin E
Experimental: The cells were measured for a morphological variation of apoptosis by phase contrast microscopy. The cells of prophase and post-phase apoptosis were detected by annexin V staining and TUNEL assay. In order to carry out the annexin V staining of ALVA-41 cells, the cells were exposed to cathepsin E or cathepsin L for 4 hours and centrifuged. After centrifugation, the separated cells were washed twice with PBS and incubated with fluorescein isothiocyanate-conjugated annexin V for 10 minutes at room temperature in a dark place. The cells that were positive as a result of the annexin V staining were then detected with fluorescence microscope. The TUNEL assay was carried out for the incubated tumor cells using Apop Tag Peroxidase Apoptosis Detection Kit and for heterografts using Tumor TACS In Situ Apoptosis Detection Kit.
as §1

cathepsin B was tested, and the “number of living cells” value ([1]; neutral pH, 10-100 μg/ml) was “increased the number of living cells in a concentration-dependent way”.
With `COc1cc([C@@H]2c3cc4c(cc3[C@@H](O[C@@H]3O[C@@H]5CO[C@@H](C)O[C@H]5[C@H](O)[C@H]3O)[C@H]3COC(=O)[C@H]23)OCO4)cc(OC)c1O` [etoposide] the “rate of apoptosis of U937 cells” value [2] was “approximately 40%”.
For cathepsin D, the “number of living cells” value ([1]; neutral pH, 10-100 μg/ml) was “increased the number of living cells in a concentration-dependent way”.
`CC(C)CC(=O)N[C@H](C(=O)N[C@H](C(=O)N[C@@H](CC(C)C)[C@@H](O)CC(=O)N[C@@H](C)C(=O)N[C@@H](CC(C)C)[C@@H](O)CC(=O)O)C(C)C)C(C)C` [pepstatin A, reference compound] (Isovaleryl-VV[Sta]A[Sta]-OH) was tested, and the “effect on cytotoxicity of cathepsin E against cancer cells” value ([1]; added to culture medium of ALVA-41 cells, pepstatin A 100 μM) was “suppressed”.
In the case of `COC(=O)C[C@H](NC(=O)[C@H](C)NC(=O)[C@@H](NC(=O)OCc1ccccc1)C(C)C)C(=O)CF` [z-VAD-fmlk, reference compound] (Cbz-Val-Ala-Asp(OMe)-CH2F), the “effect of caspase inhibitor on cell death of cancer cells caused by cathepsin E” value [3] was “suppression”.
For cathepsin L, the “staining with annexin V and TUNEL reagent” value ([3]; ALVA-41 cells, 100 μg/ml) was “negative”, the “morphological changes of treated cells” value ([3]; ALVA-41 cells, microscopy, 100 μg/ml) was “necrosis-like morphological changes” and the “number of living cells” value ([1]; high concentration range (50-100 μg/ml)) was “decreases the number of the living cells”. The “number of living cells” value ([1]; low concentration (10 μg/ml)) was “increase in the number of these living cells”.
For DEVD-fmlk [reference compound], the “effect of caspase inhibitor on cell death of cancer cells caused by cathepsin E” value [3] was “suppression”.
